The results in this text go back to paper PMC7125863 (Bioorganic & Medicinal Chemistry, 2013).

pKi: −log10 of the molar value.

Series [1] deals with human cytomegalovirus (HCMV) strain AD-169. The experiment in a line: Anti-HCMV assay, strain AD169. In kind it is cell-based. The conditions noted are these: in parentheses.
The subject of series [2] is human cytomegalovirus (HCMV) strain Davis. As to the kind of experiment: Anti-HCMV assay, strain Davis. In kind it is cell-based. The conditions noted are these: in parentheses.
Series [3] in a line: in vitro. Conditions: human.
Series [4] concerns the target wild-type HIV-1 reverse transcriptase (Human immunodeficiency virus type 1 group M subtype B, UniProt P04585). As to the kind of experiment: RT enzyme assay, wild-type RT. In kind it is biochemical.
Series [5] concerns HIV-1 (IIIB) wild type. The experiment in a line: Anti-HIV assay in MT-4 cell cultures. The conditions noted are these: MT-4 cells.
The target of series [6] is HIV-1 RT K103N (Human immunodeficiency virus type 1 group M subtype B, UniProt P04585, K690N). The experiment in a line: biochemical.
The target in series [7] is HIV-1 RT K103N/Y181C (Human immunodeficiency virus type 1 group M subtype B, UniProt P04585, K690N/Y768C). As to the kind of experiment: biochemical.

As for `Nc1ccn(C[C@@H](CO)OCP(=O)(O)O)c(=O)n1.O.O` [Cidofovir, reference compound], the SI in series [1] is reported as 64; in series [2], 63. This compound also returned a CC50 in series [3] of 63 µM.
In the case of `Cc1ccccc1OCCn1ccc(=O)n(Cc2ccccc2)c1=O` [Compound 5, 3-Benzyl-1-[2-(2-methylphenoxy)ethyl]uracil], in series [4], the pKi (commonly the negative decadic logarithm of the Ki, by convention in mol/L) was less than 4.00.
As to `Cc1cccc(OCCn2ccc(=O)n(Cc3ccccc3)c2=O)c1` [Compound 6, 3-Benzyl-1-[2-(3-methylphenoxy)ethyl]uracil], the negative-log Ki (pKi) in series [4] is less than 4.00.
On to `Cc1ccc(OCCn2ccc(=O)n(Cc3ccccc3C)c2=O)cc1` [Compound 15, 3-(2-Methylbenzyl)-1-[2-(4-methylphenoxy)ethyl]uracil], for which the pKi in series [4] is less than 4.00.
`Cc1ccc(OCCn2ccc(=O)n(Cc3cccc(C)c3)c2=O)cc1` [Compound 16, 3-(3-Methylbenzyl)-1-[2-(4-methylphenoxy)ethyl]uracil]: the “SI, selectivity index, ratio CC50/IC50” value in series [5] is recorded as “⩾11”.
Regarding `Cc1ccc(OCCn2ccc(=O)n(Cc3cc(C)cc(C)c3)c2=O)cc1` [Compound 19, 1-[2-(4-Methylphenoxy)ethyl]-3-(3,5-dimethylbenzyl)uracil], the pKi in series [6] and in series [7] was less than 4.59 in each case.
On to `Cc1ccc(OCCn2ccc(=O)n(Cc3c(C)cc(C)cc3C)c2=O)cc1` [Compound 20, 1-[2-(4-Methylphenoxy)ethyl]-3-(2,4,6-trimethylbenzyl)-uracil], for which the pKi in series [4] was less than 4.00.
In series [7], `Cc1cc(C)cc(Cn2c(=O)ccn(C/C=C/c3ccccc3)c2=O)c1` [Compound 30, 1-Cinnamyl-3-(3,5-dimethylbenzyl)uracil] showed a pKi of less than 4.00.
Turning to `O=c1ccn(C/C=C/c2ccccc2)c(=O)n1Cc1cc(F)cc(F)c1` [Compound 31, 1-Cinnamyl-3-(3,5-difluorobenzyl)uracil], the SI in series [1] worked out at 1.38; in series [2], 1.13. The same compound gave a CC50 in series [3] of 51 µM.
As for `O=c1ccn(C/C=C/c2ccccc2)c(=O)n1Cc1cc(Cl)cc(Cl)c1` [Compound 32, 1-Cinnamyl-3-(3,5-dichlorobenzyl)uracil], the pKi in series [7] was less than 4.00. The SI in series [1] was 11; in series [2], 9. The CC50 in series [3] is not below 100 µM.
`O=c1ccn(C/C=C/c2ccccc2)c(=O)n1Cc1cc(Br)cc(Br)c1` [Compound 33, 1-Cinnamyl-3-(3,5-dibromobenzyl)uracil] had a pKi in series [7] of less than 4.00.
Turning to `Cc1cc(Br)cc(Cn2c(=O)ccn(C/C=C/c3ccccc3)c2=O)c1` [Compound 34, 3-(3-Bromo-5-methylbenzyl)-1-cinnamyluracil], the figures for the SI in series [1] and in series [2] were 6 and 5, respectively. The same compound gave a CC50 in series [3] not below 100 µM.
`O=c1ccn(C/C=C/c2ccccc2)c(=O)n1Cc1cccc2ccccc12` [Compound 35, 1-Cinnamyl-3-(1-naphthylmethyl)uracil]: the SI in series [1] turned out to be 7; in series [2], 16. This compound gave a CC50 in series [3] not below 100 µM.
In the case of `Nc1nc2c(ncn2COC(CO)CO)c(=O)[nH]1` [Ganciclovir, reference compound], the SI was determined as 21 in series [1] and 23 in series [2]. Also, the CC50 in series [3] turned out to be 132 µM.
